Reference: patent US5336686A, “17 Methylene lactones of steroids” (Roussel-Uclaf, priority 1992, dated 1994)

Legend:
[1] = system: Thymocytes of suprarenalectomized rats; assay: Antiglucocorticoid activity: tritiated uridine incorporation in thymocytes with dexamethasone; type: cell-based, rat; conditions: for inhibition at 1 µM / inhibition at 0.1 µM / inhibition at 0.01 µM: Rattus norvegicus, Thymocyte, 5.10^-8 M dexamethasone, 37° C., 3 hours, read-out: % inhibition of the effect of the Dexamethasone; for inhibition at 1 µM: product at 10^-6 M; for inhibition at 0.1 µM: product at 10^-7 M; for inhibition at 0.01 µM: product at 10^-8 M
Protocol: The technique used was derived from the method of Dausse et al, Molecular Pharmacology, Vol. 13, p. 948-955 (1977) ("the relationship between glucocorticoid structure and effects upon Thymocytes"), for the thymocytes of mice. Thymocytes of suprarenalectomized rats were incubated at 37° C. for 3 hours in a nutritive medium containing 5.10^-8 M of dexamethasone in the presence or not of a product to be studied at different concentrations. Tritiated uridine was added, and the incubation was continued for one hour. The incubates were cooled, treated with a 5% solution of trichloroacetic acid, filtered on Whatman GF/A paper and washed three times using a solution of 5% trichloroacetic acid. The radioactivity retained by the filter paper was determined.

[2] = target: T1, Progestogen Receptor of Rabbit's Uterus (Oryctolagus cuniculus, UniProt P06186); assay: Progestogen receptor of rabbit's uterus, relative bond affinity (RBA); type: binding; conditions: vs tritiated Product R; for relative bond affinity (RBA), Progestogen, 2 H: incubation 2 H at 0° C.; for relative bond affinity (RBA), Progestogen, 24 H: incubation 24 H at 0° C.
T1 construct: The uteri were removed, weighed and homogenized at 0° C; from tissue; host or cells: uterus of estradiol-treated impubic rabbits, 105,000 g supernatant (cytosol)
T1 sequence (P06186 1-930): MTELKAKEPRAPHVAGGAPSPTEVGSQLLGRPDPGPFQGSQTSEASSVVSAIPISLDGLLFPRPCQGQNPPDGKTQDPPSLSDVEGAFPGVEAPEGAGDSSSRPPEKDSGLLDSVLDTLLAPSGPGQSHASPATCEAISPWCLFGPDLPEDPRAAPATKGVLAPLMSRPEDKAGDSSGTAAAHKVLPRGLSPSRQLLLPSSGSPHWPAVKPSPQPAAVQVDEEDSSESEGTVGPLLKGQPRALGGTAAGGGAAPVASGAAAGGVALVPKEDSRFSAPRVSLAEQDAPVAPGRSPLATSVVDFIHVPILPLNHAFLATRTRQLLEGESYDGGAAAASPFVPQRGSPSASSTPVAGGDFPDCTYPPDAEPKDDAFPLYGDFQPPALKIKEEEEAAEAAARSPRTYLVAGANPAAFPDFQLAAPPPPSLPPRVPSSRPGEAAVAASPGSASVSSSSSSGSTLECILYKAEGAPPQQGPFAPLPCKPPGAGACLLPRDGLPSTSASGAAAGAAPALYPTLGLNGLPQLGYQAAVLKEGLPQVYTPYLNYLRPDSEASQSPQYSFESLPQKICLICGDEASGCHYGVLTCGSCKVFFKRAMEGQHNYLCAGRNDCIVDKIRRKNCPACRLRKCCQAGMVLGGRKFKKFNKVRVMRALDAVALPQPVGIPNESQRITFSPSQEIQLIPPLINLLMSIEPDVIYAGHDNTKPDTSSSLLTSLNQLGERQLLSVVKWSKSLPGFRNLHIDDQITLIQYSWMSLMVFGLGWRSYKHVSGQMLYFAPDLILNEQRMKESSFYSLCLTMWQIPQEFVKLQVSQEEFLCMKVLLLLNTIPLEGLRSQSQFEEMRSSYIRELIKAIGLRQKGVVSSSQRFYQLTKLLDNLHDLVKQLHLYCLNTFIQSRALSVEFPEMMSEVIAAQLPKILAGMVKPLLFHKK
Protocol: Impubic rabbits weighing about 1 kg received a cutaneous application of […] of estradiol and 5 days after this treatment, the animals were killed. The uteri were removed, weighed and homogenized at 0° C., using a Potter teflon flask in a buffered TS solution (10 mM Tris, 0.25 M saccharose, HCl pH 7.4) (1 g of tissue per 50 ml of TS). The homogenate was then ultracentrifuged (105,000 g×90 min) at 0° C. The aliquots of the supernatant were incubated at 0° C. for a time t, with a constant concentration (T) of tritiated Product R (17,21-dimethyl-19-nor-Δ^4,9 -pregnadiene-3,20-dione) in the presence of increasing concentrations (0-2,500×10^-9 M) either of cold R, or of cold progesterone, or of cold product to be tested. The concentration of bound tritiated R (B) was then measured in each incubate by the technique of adsorption with carbon dextran.
(§1) The calculation of the relative bond affinity (RBA) was identical for both receptors.
(§2) The following 2 curves were drawn: the percentage of bound tritiated hormone B/T as a function of the logarithm of the concentration of the cold reference hormone and B/T as a function of the logarithm of the concentration of the cold tested product. The straight line of the equation [formula] was determined. B/T max=Percentage of bound tritiated hormone for an incubation of this tritiated hormone at the concentration (T).
(§3) B/T min=Percentage of the bound tritiated hormone for an incubation of this tritiated hormone at the concentration (T) in the presence of a large excess of cold hormone (2,500×10^-9 M).
(§4) The intersections of the straight line I50 and the curves enabled the concentrations of cold reference hormone (CH) and cold tested product (CX) which inhibited the bonding of the tritiated hormone on the receptor by 50% to be evaluated.
(§5) The relative bond affinity (RBA) of the tested product was determined by the equation: [formula]

[3] = target: T2, Glucocorticoid Receptor of Rat's Thymus (Rattus norvegicus, UniProt P06536); assay: Glucocorticoid receptor of rat's thymus, relative bond affinity (RBA); type: binding; conditions: vs tritiated dexamethasone; for relative bond affinity (RBA), Glucocorticoid, 4 H: incubation 4 H at 0° C.; for relative bond affinity (RBA), Glucocorticoid, 24 H: incubation 24 H at 0° C.
T2 construct: The thymuses were removed and homogenized at 0° C; from tissue; host or cells: thymus of adrenalectomized male Sprague-Dawley rats, 105,000 g supernatant (cytosol)
T2 sequence (P06536 1-795): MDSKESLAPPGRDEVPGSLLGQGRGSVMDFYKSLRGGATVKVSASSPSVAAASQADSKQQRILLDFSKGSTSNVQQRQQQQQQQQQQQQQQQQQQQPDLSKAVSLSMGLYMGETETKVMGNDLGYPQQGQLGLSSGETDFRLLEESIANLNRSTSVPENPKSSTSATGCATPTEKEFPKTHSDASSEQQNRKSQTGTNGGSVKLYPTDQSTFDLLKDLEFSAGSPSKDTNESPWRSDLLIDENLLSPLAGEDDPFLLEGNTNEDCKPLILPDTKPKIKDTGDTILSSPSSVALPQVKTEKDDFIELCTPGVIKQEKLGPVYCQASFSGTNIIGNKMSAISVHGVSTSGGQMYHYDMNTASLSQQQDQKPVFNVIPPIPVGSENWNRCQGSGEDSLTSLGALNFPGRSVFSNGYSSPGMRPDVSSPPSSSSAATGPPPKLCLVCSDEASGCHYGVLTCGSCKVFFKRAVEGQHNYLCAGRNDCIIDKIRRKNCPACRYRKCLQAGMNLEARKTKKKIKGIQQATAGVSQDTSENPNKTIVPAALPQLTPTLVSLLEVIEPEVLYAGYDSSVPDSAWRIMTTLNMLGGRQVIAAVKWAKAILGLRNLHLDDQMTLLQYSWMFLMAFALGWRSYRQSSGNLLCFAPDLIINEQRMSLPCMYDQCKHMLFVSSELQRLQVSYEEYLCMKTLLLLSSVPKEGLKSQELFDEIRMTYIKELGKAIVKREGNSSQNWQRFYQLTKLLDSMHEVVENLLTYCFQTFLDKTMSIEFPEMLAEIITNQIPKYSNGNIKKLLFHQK
Protocol: Male Sprague-Dawley EOPS rats weighing 160 to 200 g were suprarenalectomized and 4 to 8 days after this removal, the animals were killed. The thymuses were removed and homogenized at 0° C. in a 10 mM Tris, 0.15M saccharose, 2 mM dithiothreitol, HCl pH 7.4 buffer using a Potter polytetra-fluoroethylene flask (1 g of tissue per 10 ml of TS). The homogenate was ultracentrifuged (105,000 g×90 min) at 0° C. and the aliquots of the supernatant were incubated at 0° C. for a time (t) with a constant concentration (T) of tritiated dexamethasone in the presence of increasing concentrations (0-2,500×10^-9 M)either of cold dexamethasone, or the cold product to be tested. The concentration of the bound tritiated dexamethasone (B) was measured in each incubate by the technique of adsorption with carbon dextran.
as §1, §2, §3, §4, §5

## C=C1C[C@@]2(CC[C@H]3[C@@H]4CCC5=CC(=O)CCC5=C4[C@@H](c4ccc(N(C)C)cc4)C[C@@]32C)OC1=O [Example 1, γ-lactone of 11β-[4-(dimethylamino)phenyl] 21-methylene 19-nor 17α-Δ^4,9-pregnadiene-17β-ol-3-one-21-carboxylic acid]
[1]
  inhibition at 1 µM: 116%
  inhibition at 0.1 µM: 104%
  inhibition at 0.01 µM: 71%
[2]
  relative bond affinity (RBA), Progestogen, 2 H: 32
  relative bond affinity (RBA), Progestogen, 24 H: 21
[3]
  relative bond affinity (RBA), Glucocorticoid, 4 H: 135
  relative bond affinity (RBA), Glucocorticoid, 24 H: 94

## C=C1C[C@]2(CC[C@H]3[C@@H]4CCC5=CC(=O)CCC5=C4[C@@H](c4ccc(N(C)C)cc4)C[C@@]32C)OC1=O [Example 2, γ-Lactone of 11β-[4-(dimethylamino)phenyl]21methylene-19-nor 17β-Δ^4,9-pregnadiene-17α-ol-3-one-21-carboxylic acid]
[2]
  relative bond affinity (RBA), Progestogen, 2 H: 86
  relative bond affinity (RBA), Progestogen, 24 H: 36
[3]
  relative bond affinity (RBA), Glucocorticoid, 4 H: 136
  relative bond affinity (RBA), Glucocorticoid, 24 H: 59

## C=C1C[C@@]2(CC[C@H]3[C@@H]4CCC5=CC(=O)CCC5=C4[C@@H](c4ccc(SC)cc4)C[C@@]32C)OC1=O [Example 3, γ-lactone of 11β-[4-(methylthio)phenyl]21-methylene 19-nor-17α-Δ^4,9-pregnadiene-17β-ol-3-one-21-carboxylic acid]
[1]
  inhibition at 1 µM: 133%
  inhibition at 0.1 µM: 69%
  inhibition at 0.01 µM: 24%

## C[C@@H]1C[C@H]2[C@@H]3CCC4=CC(=O)C=C[C@]4(C)[C@@]3(F)[C@@H](O)C[C@]2(C)[C@@]1(O)C(=O)CO [dexamethasone, reference compound]
[1]; effect of dexamethasone itself, in words
  incorporation of tritiated uridine: decrease
